{
  "source": "paper PMC9229843",
  "about": "“Cancer-Related Somatic Mutations in Transmembrane Helices Alter Adenosine A1 Receptor Pharmacology” (Molecules, 2022)",
  "key": {"hA1AR G279S^7.44 [1]": {"target": "T1, hA1AR G279S^7.44 (Homo sapiens, UniProt P30542, G279S)", "T1 sequence (P30542 1-326 G279S)": "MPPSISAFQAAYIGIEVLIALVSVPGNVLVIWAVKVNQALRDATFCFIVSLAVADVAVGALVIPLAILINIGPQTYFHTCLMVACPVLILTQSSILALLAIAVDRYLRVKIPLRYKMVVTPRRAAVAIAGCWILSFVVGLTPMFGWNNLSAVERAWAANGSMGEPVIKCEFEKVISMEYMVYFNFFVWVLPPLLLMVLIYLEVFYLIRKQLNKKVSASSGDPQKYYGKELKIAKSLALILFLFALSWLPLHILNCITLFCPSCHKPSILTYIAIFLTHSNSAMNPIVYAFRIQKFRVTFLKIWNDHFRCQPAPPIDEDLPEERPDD", "settings": "[35S]GTPγS; ratio over basal activity of wild type hA1AR", "experimental": "(§1) Transient transfection of CHO cells with wild type or mutated hA1AR plasmid constructs was performed using a polyethylenimine (PEI) method. Cells were seeded in 10-cm culture dishes to achieve 50–60% confluency 24 h prior to transfection. On the day of transfection, cells were transfected with a PEI: DNA ratio of 3:1 and a plasmid DNA amount of 10 μg/dish. Moreover, 24 h post-transfection, the medium was refreshed, and 48 h after transfection, cells were collected and membranes were prepared as previously described. Membranes were aliquoted in 250 or 100 μL and stored at −80 °C. Membrane protein concentrations were determined using the BCA method.\n(§2) [^35S]GTPγS binding assays were adapted from a previously published method. […] Then, 20 µL of [^35S]GTPγS (final concentration of 0.3 nM) was added to each well, followed by 90 min of incubation at 25 °C. Incubations were terminated and filter-bound radioactivity was measured as described above.\n(§3) All experimental data were analyzed by GraphPad Prism 7.0 or 8.0 (GraphPad Software Inc., San Diego, CA, USA). Data from yeast liquid growth and [^35S]GTPγS binding assays were analyzed by non-linear regression using “log (agonist) vs. response (three parameters)” or “log (inhibitor) vs. response (three parameters)” to obtain potency (EC50), inhibitory potency (IC50), and efficacy (Emax or Imax) values. The radioligand displacement curves were obtained from a statistically preferred one-site or two-site binding model. pKi values were calculated from pIC50 values using the Cheng–Prusoff equation, where KD values were obtained from the homologous competition assays from this study and calculated by non-linear regression using “one site–homologous” [62]."}, "hA1AR H78L^3.23": {"target": "T2, hA1AR H78L^3.23 (Homo sapiens, UniProt P30542, H78L)", "T2 sequence (P30542 1-326 H78L)": "T1 sequence (P30542 1-326 G279S) with H78L, S279G", "settings": "[35S]GTPγS; ratio over basal activity of wild type hA1AR", "experimental": "as §1, §2, §3"}, "hA1AR L134F^4.52 [2]": {"target": "T3, hA1AR L134F^4.52 (Homo sapiens, UniProt P30542, L134F)", "T3 sequence (P30542 1-326 L134F)": "T1 sequence (P30542 1-326 G279S) with L134F, S279G", "settings": "[35S]GTPγS; ratio over basal activity of wild type hA1AR", "experimental": "as §1, §2, §3"}, "wild type hA1AR": {"target": "T4, wild type hA1AR (Homo sapiens, UniProt P30542)", "T4 sequence (P30542 1-326)": "T1 sequence (P30542 1-326 G279S) with S279G", "settings": "[35S]GTPγS; ratio over basal activity of wild type hA1AR", "experimental": "as §1, §2, §3"}, "A1AR P86F^3.31": {"system": "A1AR P86F^3.31", "design": "method as in PMID 9920910", "settings": "result in words; cited from earlier work"}, "hA1AR L134F^4.52 [3]": {"target": "T3, hA1AR L134F^4.52", "assay": "[3H]DPCPX radioligand displacement assay, CHO membranes", "type": "binding", "design": "expressed in transfected cells; host or cells: CHO cells, transient; membranes", "settings": "fraction of high-affinity state; two-site model", "experimental": "as §1\nThe displacement assays were performed as described previously. […] Note, the number of cell membranes (10–25 µg) was adjusted to obtain (approximately) a 1500 DPM assay window for each mutant. […] Incubations were terminated after 1 h at 25 °C by rapid vacuum filtration through GF/B filter plates (PerkinElmer, Groningen, Netherlands) using a Perkin Elmer Filtermate-harvester. Afterward, filter plates were washed ten times with ice-cold buffer (50 mM Tris-HCl, pH 7.4) and dried at 55 °C for 30 min. After the addition of 25 µL per well of the Microscint scintillation cocktail (PerkinElmer, Groningen, The Netherlands), the filter-bound radioactivity was measured by scintillation spectrometry in a Microbeta2® 2450 microplate counter (PerkinElmer).\nas §3"}, "hA1AR G279S^7.44 [4]": {"target": "T1, hA1AR G279S^7.44", "assay": "[3H]DPCPX radioligand displacement assay, CHO membranes", "type": "binding", "design": "HA; expressed in transfected cells; host or cells: CHO cells, transient PEI transfection; membranes prepared", "settings": "fraction of high-affinity state; two-site model", "experimental": "as §1\nThe displacement assays were performed as described previously. […] After the addition of 25 µL per well of the Microscint scintillation cocktail (PerkinElmer, Groningen, The Netherlands), the filter-bound radioactivity was measured by scintillation spectrometry in a Microbeta2® 2450 microplate counter (PerkinElmer).\nAll experimental data were analyzed by GraphPad Prism 7.0 or 8.0 (GraphPad Software Inc., San Diego, CA, USA). Data from yeast liquid growth and [^35S]GTPγS binding assays were analyzed by non-linear regression using “log (agonist) vs. response (three parameters)” or “log (inhibitor) vs. response (three parameters)” to obtain potency (EC50), inhibitory potency (IC50), and efficacy (Emax or Imax) values. […]"}},
  "note": "Where a chain is given by its changes, count along the chain named.",
  "data": [
    {"molecule": "OC[C@H]1O[C@@H](n2cnc3c(NC4CCCC4)ncnc32)[C@H](O)[C@@H]1O", "note": "[CPA, N^6-cyclopentyladenosine]", "values": [
      {"measurement": "Emax", "setting": "hA1AR G279S^7.44 [1]", "result": "1.57 ± 0.20"},
      {"measurement": "Emax", "setting": "hA1AR H78L^3.23", "result": "1.40 ± 0.10"},
      {"measurement": "Emax", "setting": "hA1AR L134F^4.52 [2]", "result": "1.48 ± 0.24"},
      {"measurement": "Emax", "setting": "wild type hA1AR", "result": "1.48 ± 0.13"},
      {"measurement": "CPA binding", "setting": "A1AR P86F^3.31", "result": "abolished"},
      {"measurement": "Fraction (High)", "setting": "hA1AR L134F^4.52 [3]", "result": "0.34 ± 0.03"},
      {"measurement": "Fraction (High)", "setting": "hA1AR G279S^7.44 [4]", "result": "0.17 ± 0.04"}
    ]}
  ]
}
